According to publication PMC5589648, “Acetyl-lupeolic acid inhibits Akt signaling and induces apoptosis in chemoresistant prostate cancer cells in vitro and in vivo” (Oncotarget, 2017):

Assays:
Akt3 = molecular target: T1, Akt3 (Homo sapiens, UniProt Q9Y243); assay: in vitro kinase assay, [γ-32P]ATP, GST-GSK-3β substrate; type: biochemical
T1 construct: active recombinant human Akt3

Akt1 = molecular target: T2, Akt1 (Homo sapiens, UniProt P31749); assay: as above; type: biochemical
T2 construct: active recombinant human Akt1
T2 sequence (P31749 whole entry): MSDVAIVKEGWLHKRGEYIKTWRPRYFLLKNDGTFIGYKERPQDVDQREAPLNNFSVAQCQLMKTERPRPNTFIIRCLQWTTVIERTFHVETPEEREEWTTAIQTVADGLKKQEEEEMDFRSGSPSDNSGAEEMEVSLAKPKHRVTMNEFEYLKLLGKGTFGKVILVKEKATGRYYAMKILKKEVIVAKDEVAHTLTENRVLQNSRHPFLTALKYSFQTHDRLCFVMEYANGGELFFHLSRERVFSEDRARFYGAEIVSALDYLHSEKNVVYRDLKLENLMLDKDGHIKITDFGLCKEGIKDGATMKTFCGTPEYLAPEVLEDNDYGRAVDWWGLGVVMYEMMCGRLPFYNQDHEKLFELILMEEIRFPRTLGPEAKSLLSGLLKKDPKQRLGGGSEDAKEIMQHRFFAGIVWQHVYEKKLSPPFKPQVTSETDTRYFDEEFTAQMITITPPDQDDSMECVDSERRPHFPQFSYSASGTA

T1 sequence (Q9Y243 2-479): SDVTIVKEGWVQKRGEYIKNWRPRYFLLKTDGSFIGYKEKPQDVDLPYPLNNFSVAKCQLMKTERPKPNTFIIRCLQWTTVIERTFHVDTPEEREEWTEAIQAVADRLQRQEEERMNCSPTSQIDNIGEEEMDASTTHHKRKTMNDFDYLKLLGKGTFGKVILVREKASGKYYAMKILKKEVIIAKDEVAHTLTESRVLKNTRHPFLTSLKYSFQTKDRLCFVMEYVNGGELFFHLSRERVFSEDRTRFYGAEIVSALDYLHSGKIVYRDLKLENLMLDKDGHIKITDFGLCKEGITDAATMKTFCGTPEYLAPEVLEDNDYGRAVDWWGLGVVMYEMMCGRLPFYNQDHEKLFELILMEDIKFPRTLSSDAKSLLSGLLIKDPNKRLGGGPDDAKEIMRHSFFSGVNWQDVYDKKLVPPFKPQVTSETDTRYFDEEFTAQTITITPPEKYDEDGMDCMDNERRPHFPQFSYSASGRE

## C=C(C)[C@@H]1CC[C@]2(C)CC[C@]3(C)[C@H](CC[C@@H]4[C@@]5(C)CC[C@H](O)C(C)(C)[C@@H]5CC[C@]43C)[C@@H]12 [lupeol]
Akt3
  in vitro kinase assay, [γ-32P]ATP, GST-GSK-3β substrate: Compared to ac-LA, lupeol was about threefold less potent in the inhibition of Akt1 and Akt3 isoforms
Akt1
  in vitro kinase assay, [γ-32P]ATP, GST-GSK-3β substrate: Compared to ac-LA, lupeol was about threefold less potent in the inhibition of Akt1 and Akt3 isoforms
